Test results taken from patent US20070270362A1, “Methods and compositions for prevention or treatment of inflammatory-related diseases and disorders” (The University of Washington, priority 2006, published 2007).
“Also recorded” adds a separate entry of the source.

Experiments:
[1] = system: Jurkat cells or PBMC adhering to cytochalasin D-retracted BAEC or BAEC-derived matrix; experiment: Ligand-induced adhesion (LIA) of unstimulated lymphocytes to retracted EC or EC matrix; assay type: cell-based, human; conditions: for adhesion to retracted BAEC or EC matrix (LIA): Jurkat or PBMC treated with 20 μM inhibitor for 30 min, adhesion 30 min; for ligand-induced cell adhesion: same dose (1 μM) treatment of Jurkat cells
Protocol: (§1) Cells. Jurkat cells and Ramos B cells were obtained from the American Type Culture Collection (ATCC) and were cultured in RPMI (Mediatech, Herndon Va.) supplemented with glutaMAX-1 (Invitrogen, Carlsbad Calif.), 1 mM sodium pyruvate (BioWhittaker, Walkersville Md.), nonessential amino acids (NEAA) (BioWhittaker) and 10% fetal bovine serum (FBS) (Hyclone, Logan Utah). Peripheral blood was obtained from healthy donors with informed consent according to protocols approved by the Human Subjects Review Committee of the University of Washington. PBMC were isolated by Ficoll-Hypaque (Pharmacia, Piscataway, N.J.) gradient centrifugation and washed with PBS. HUVEC were isolated and cultured as previously described (Schwartz et al., J Immunol 162: 4842-8, 1999) and were grown in RPMI 1640 with supplemented with 2 mM glutamine, sodium pyruvate, NEAA, 10 mM HEPES, 100 U/ml penicillin, 100 U/ml streptomycin, 250 ng/ml fungizone (BioWhittaker), 90 mg/ml heparin (Sigma, St. Louis, Mo.), bovine hypothalamic extract (gift of E. Raines, University of Washington, Seattle, Wash.), and 10% bovine calf serum supplemented with iron (HyClone). HUVEC were cultured on surfaces coated with 2% gelatin (Sigma). BAEC were a gift of Helene Sage (Hope Heart Institute, Seattle Wash.) and were grown in DMEM (Mediatech) supplemented with glutaMAX-1, sodium pyruvate and 8% FBS. EC matrix was prepared by lysis of a confluent layer of EC with 20 mM NH4OH at 37° C. for 5 min (Kato and Gospodarowicz, J Cell Biol 100: 486-95, 1985) and blocked briefly with growth medium. Adhesion assays. Lymphocytes were labeled with 2.5 mM calcein-AM (Molecular Probes, Eugene, Oreg.) at room temperature for 20-40 min, washed, and resuspended in HBSS with calcium and magnesium (Mediatech) supplemented with 0.1% BSAnd 4 mM HEPES. Lymphocytes were incubated with inhibitors or function-blocking antibodies at 37° C. for 15-30 min and tested for LIA or phorbol ester-stimulated adhesion to EC or to EC matrix for 15-30 min at 37° C. Adhesion was measured by a Cytofluor Series 4000 fluorescence plate reader (PerSeptive Biosystems, Framingham, Mass.). Plates were scanned before and after washing for total and adherent cells, respectively. Statistical significance was deteremined by Student's t-Test. In some cases, EC were labeled with Cell Tracker Orange (Molecular Probes) per manufacturers instructions prior to adhesion. Cells were fixed after adhesion assays and adherent cells were directly visualized by fluorescent microscopy. Underlying fibronectin fibrils were visualized with polyclonal anti-bovine fibronectin antibody (Accurate), followed by Alexa-568 conjugated secondary antibody (Molecular Probes).

[2] = system: retinoblastoma protein (Rb), Cdk2 specific site (T821) and Cdk4 specific site (249/252); experiment: Western blot of Rb phosphorylation with phospho-specific antibodies; assay type: cell-based; conditions: Jurkat cells, 20 μM, 30 min
Protocol: Western Blot Analysis. Equal numbers of Jurkat cells (1×10^6) were lysed in buffer containing 50 mM Hepes, pH 7.5, 10 mM NaCl, 5 mM MgCl2, 1 mM EGTA, 1 μg/ml leupeptin, 1 μg/ml aprotinin, 1% triton, and 10% glycerol and Complete Mini Protease Inhibitor Cocktail (Roche). Equal amounts of protein were separated by SDS-PAGE, transferred to Immobilon and blocked for 1 hour. Blots were incubated with primary antibody for 1 hour, followed by peroxidase-conjugated secondary antibody for 1 hour and then developed with Enhanced Chemiluminescence (ECL, Amersham). […] Anti-Cdk2 and anti-Cdk4 antibodies were obtained from eBioscience.

[3] = system: PBMC migrating through confluent HUVEC monolayer; experiment: Transendothelial migration assay; assay type: cell-based, human
Protocol: Flow cytometry. Integrin subunit expression levels were analyzed by a FACScan (Becton Dickinson) instrument. Analyzed cells were incubated in integrin antibodies for 30 min, followed by incubation with fluorescein-labeled secondary antibodies for 30 mins. Migration Assays. Calcein-labeled PBMC were treated with purvanalol for 15 min, then added to a confluent monolayer of HUVEC grown on collagen-coated transwell (3 micron pore size, Costar-Corning). PBMC were allowed to migrate for 4 hours at 37° C. Number of migrated cells in bottom chamber was counted. […] In addition, in some experiments, equal numbers of PBMC were allowed to adhere to HUVEC, then treated with purvanaol, to verify that differences in migration were not simply due to differences in initial adhesion. All assays were performed in triplicate. Integrity of the endothelial monolayer was verified by measurements of transendothelial resistance before and after migration assay.

BAEC or HUVEC monolayer = experiment: Lymphocyte adhesion to endothelial cells treated with retracting or apoptosis-inducing agents; assay type: cell-based; conditions: for lymphocyte adhesion to EC treated with the agent: BAEC or HUVEC
Protocol: as §1, with “HUVEC were isolated and cultured as previously described (Schwartz et al., J Immunol 162: 4842-8, 1999) and were grown in RPMI 1640 with supplemented with 2 mM glutamine, sodium pyruvate, NEAA, 10 mM HEPES, 100 U/ml penicillin, 100 U/ml streptomycin, 250 ng/ml fungizone (BioWhittaker), 90 mg/ml heparin (Sigma, St. Louis, Mo.), bovine hypothalamic extract (gift of E. Raines, University of Washington, Seattle, Wash.), and 10% bovine calf serum supplemented with iron (HyClone).” left out, “EC matrix was prepared by lysis of a confluent layer of EC with 20 mM NH4OH at 37° C. for 5 min (Kato and Gospodarowicz, J Cell Biol 100: 486-95, 1985) and blocked briefly with growth medium.” left out, “microscopy.” for “microscopy. Underlying fibronectin fibrils were visualized with polyclonal anti-bovine fibronectin antibody (Accurate), followed by Alexa-568 conjugated secondary antibody (Molecular Probes).”

Jurkat cells = conditions: 1 μM treatment of Jurkat cells; previously reported; cited from earlier work

Compound: CC(C)[C@H](CO)Nc1nc(Nc2cc(N)cc(Cl)c2)c2ncn(C(C)C)c2n1 [aminopurvalanol A]
- adhesion to retracted BAEC or EC matrix (LIA) [1]: block ligand-induced adhesion; also recorded: significantly reduced

Compound: CC(C)[C@H](CO)Nc1nc(Nc2cccc(Cl)c2)c2ncn(C(C)C)c2n1 [purvalanol A]
- phosphorylation of Rb at Cdk2 site (T821) and Cdk4 site (249/252) [2]: block Rb phosphorylation
- adhesion to retracted BAEC or EC matrix (LIA) [1]: block ligand-induced adhesion; also recorded: significantly reduced
- initial adhesion of PBMC to confluent endothelial cells [3]: did not affect initial adhesion
- PBMC migration through confluent endothelial monolayer ([3]; HUVEC on transwell): inhibited

Compound: O=C(O)CN(CCN(CC(=O)O)CC(=O)O)CC(=O)O [EDTA]
- endothelial cell retraction (BAEC or HUVEC monolayer): caused endothelial cell retraction

Compound: CC[C@]1(O)C[C@@H]2CN(CCc3c([nH]c4ccccc34)[C@@](C(=O)OC)(c3cc4c(cc3OC)N(C)[C@H]3[C@@](O)(C(=O)OC)[C@H](OC(C)=O)[C@]5(CC)C=CCN6CC[C@]43[C@@H]65)C2)C1 [vinblastine]
- endothelial cell retraction (BAEC or HUVEC monolayer): failed to induce retraction
- lymphocyte adhesion to EC treated with the agent (BAEC or HUVEC monolayer): failed to produce comparable lymphocyte adhesion

Compound: CN[C@@H]1C[C@H]2O[C@@](C)([C@@H]1OC)n1c3ccccc3c3c4c(c5c6ccccc6n2c5c31)C(=O)NC4 [staurosporine]
- endothelial cell retraction (BAEC or HUVEC monolayer): caused endothelial cell retraction

Compound: CC[C@H](CO)Nc1nc(NCc2ccccc2)c2ncn(C(C)C)c2n1 [roscovitine]
- adhesion to retracted BAEC or EC matrix (LIA) [1]: block ligand-induced adhesion; also recorded: significantly reduced

Compound: COC(=O)Nc1nc2cc(C(=O)c3cccs3)ccc2[nH]1 [nocadozole]
- endothelial cell retraction (BAEC or HUVEC monolayer): failed to induce retraction
- lymphocyte adhesion to EC treated with the agent (BAEC or HUVEC monolayer): failed to produce comparable lymphocyte adhesion

Compound: C[C@@H](N)[C@H]1CC[C@H](C(=O)Nc2ccncc2)CC1 [Y-7632]
- inhibition of LIA by inhibitors of other pathways [1]: did not inhibit LIA

Compound: O=c1c(-c2ccc(O)cc2)coc2cc(O)cc(O)c12 [genistein]
- inhibition of LIA by inhibitors of other pathways [1]: did not inhibit LIA

Compound: COc1cc2c(c(OC)c1OC)-c1ccc(OC)c(=O)cc1[C@@H](NC(C)=O)CC2 [colchicine]
- endothelial cell retraction (BAEC or HUVEC monolayer): failed to induce retraction
- lymphocyte adhesion to EC treated with the agent (BAEC or HUVEC monolayer): failed to produce comparable lymphocyte adhesion

Compound: COc1cccc(-c2cc(=O)c3ccccc3o2)c1N [PD98059]
- inhibition of LIA by inhibitors of other pathways [1]: did not inhibit LIA

Compound: latrunculin
- endothelial cell retraction (BAEC or HUVEC monolayer): caused endothelial cell retraction

Compound: C=C1[C@@H](C)[C@H]2[C@H](Cc3ccccc3)NC(=O)[C@]23[C@H](OC(C)=O)/C=C/[C@@](C)(O)C(=O)[C@@H](C)C/C=C/[C@H]3[C@@H]1O [cytochalasin D]
- ligand-induced cell adhesion [1]: Not affected by cytochalasin D
- ligand-induced cell adhesion ([1]; listed as cytochalasin): no affect
- phorbol ester-stimulated cell adhesion (Jurkat cells): Inhibited by cytochalasin D
- endothelial cell retraction (BAEC or HUVEC monolayer): caused endothelial cell retraction
- PBMC adhesion to treated EC versus untreated EC (BAEC or HUVEC monolayer; PBMC): 5-6 fold

Compound: CC(=O)O[C@H]1C(=O)[C@@]2(C)[C@H]([C@H](OC(=O)c3ccccc3)[C@]3(O)C[C@H](OC(=O)[C@H](O)[C@@H](NC(=O)c4ccccc4)c4ccccc4)C(C)=C1C3(C)C)[C@]1(OC(C)=O)CO[C@@H]1C[C@@H]2O [paclitaxel]
- endothelial cell retraction (BAEC or HUVEC monolayer): failed to induce retraction
- lymphocyte adhesion to EC treated with the agent (BAEC or HUVEC monolayer): failed to produce comparable lymphocyte adhesion

Compound: Thrombin
- endothelial cell retraction (BAEC or HUVEC monolayer): caused endothelial cell retraction
- increase of Jurkat cell adhesion to treated BAEC (BAEC or HUVEC monolayer; Jurkat cells, BAEC): 4-5 fold
